Measured values published in patent publication US10596168B2, “Antagonists of the thyroid-stimulating hormone receptor (TSHR)” (Forschungsverbund Berlin e.V., priority 2016, dated 2020).
Several values for one entry are separate records, joined by “and”; a condition that tells them apart may be missing. Identical values can stand only once.

Key:
Assay type in all cases: cell-based
TSHR [1] = molecular target: T1, TSHR (Homo sapiens, UniProt P16473); test: cAMP accumulation radioimmunoassay (RIA), inhibition of TSH-induced cAMP production in HEK-293 cells stably expressing TSHR; design: antagonistic activity (% inhibition): concentration or dose not given beside the values; details: for Antagonistic effect (cAMP inhibition) on TSHR: 50 μM together with the respective agonist, RIA, HEK-293; for Mode of antagonism vs. TSH (Schild analysis): bTSH dose response with increasing antagonist concentrations, wt TSHR; for antagonistic activity (% inhibition): inhibiting cAMP stimulation by TSH, radioimmunoassay; for IC50: secondary screen (RIA), dose-dependent inhibition of cAMP production caused by TSH (EC80 value), HEK-293-TSHR
T1 construct: expressed in transfected cells
Protocol: (§1) HEK-293 cells stably expressing TSHR, FSHR, LHGCR or CRF1R were cultured for 48 h and stimulated for 1 h at 37° C. with stimulation buffer (DMEM supplemented with 10 mM HEPES, 0.5% BSA, 0.25 mM 3-isobutyl-1-methylxanthine) containing the ligands as indicated. After stimulation medium was aspirated and reactions were stopped by lysis of the cells with 0.1% trifluoroacetic acid, 0.005% Triton X-100 for 30 min at 4° C. Supernatants were collected and heated at 95° C. for 10 min, dried in a rotation vacuum concentrator (Alpha-RCV, Christ) and finally stored at −20° C. until use. After reconstitution and acetylation of the samples (Jäschke et al. 2006), the cAMP content was determined using cAMP-^125I-tyrosyl methyl ester (10,000 cpm, IBL) and polyclonal rabbit anti cAMP antibodies. The radioactivity of the precipitate was determined in a γ-counter.
For the Secondary Screening cAMP accumulation was measured by radioimmunoassay (RIA) in HEK-293-TSHR cells as described before.
For the secondary screening we used a very sensitive in vitro technique, the radioimmunoassay. This assay was established and performed in HEK-293 cell line stably expressing TSHR.
Therefore RIA was used to measure the cAMP accumulation upon stimulation with TSH (EC80 value) and confirmed the desired effect for S4 and S9 with a clear decrease of cAMP production.

wt TSHR = molecular target: T2, wt TSHR (Homo sapiens, UniProt P16473); test: cAMP stimulation by agonist compound C2 at wildtype TSHR with increasing antagonist concentrations; details: C2 dose response with increasing antagonist concentrations
T2 construct: expressed in transfected cells
Protocol: as §1
Moreover, a Schild plot analysis provided first interesting hints that S37 might compete with the binding site of TSH, since increasing concentrations of added S37 led to a right shift of the TSH dose response curve (FIG. 5A) and to a linear Schild plot (FIG. 5B). S37 seems not to compete with the transmembrane binding site of the previous reported agonist compound 2 (Neumann et al. 2009), since increasing concentrations of added S37 led to diminished maximal values of the dose response curve for compound 2 by unchanged EC50 value (FIG. 5C).

Δ1-408-TSHR = molecular target: T3, Δ1-408-TSHR (Homo sapiens, UniProt P16473); test: cAMP radioimmunoassay at ectodomain-truncated TSHR construct stimulated by compound 2; details: Δ1-408-TSHR lacking the ectodomain
T3 construct: This short construct (Δ1-408-TSHR.GFP) only consists of the transmembrane region; expressed in transfected cells
Source text: Ectodomain-truncated TSHR construct (Δ1-408-TSHR.GFP) was generated using quick change site-directed mutagenesis and restriction digestion to excise the desired fragment of the TSHR sequence. The DNA sequence encoding the truncated TSHR mutant was inserted into the GFP-N1 vector. The construct was fused C-terminally with GFP and N-terminally with a FLAG tag. The FLAG tag was inserted by overlap-extension PCR. A HEK-293 cell line stably expressing this construct was generated. Shortly, cells were transfected with Polyethylenimine and plasmid DNA in a 2:1 ratio in serum free medium (DMEM). Cells were selected with medium containing 400 μg/ml G418 for several weeks and then a polyclonal population was selected for GFP fluorescence in a cell sorting device (BD FACSAria II flow cytometer). Cell surface expression was confirmed by confocal laser-scanning microscopy (GFP fluorescence) and flow cytometry using anti-FLAG M2 (Sigma).
HEK-293 cells stably expressing TSHR, FSHR, LHGCR or CRF1R were cultured for 48 h and stimulated for 1 h at 37° C. with stimulation buffer (DMEM supplemented with 10 mM HEPES, 0.5% BSA, 0.25 mM 3-isobutyl-1-methylxanthine) containing the ligands as indicated. […] After reconstitution and acetylation of the samples (Jäschke et al. 2006), the cAMP content was determined using cAMP-^125I-tyrosyl methyl ester (10,000 cpm, IBL) and polyclonal rabbit anti cAMP antibodies. […]

[2] = system: Hek293 cell line stably expressing TSHR; test: Toxicity test, alamar blue cell vitality; details: 10 μM-100 μM
Protocol: The vitality of the cells was measured by the alamar blue test using Hek293 cell line stably expressing TSHR. Untreated cells and DMSO-treated cells (0.2% DMSO) were used as control.
Therefore, we conclude that substance S37 is not toxic for the concentration range evaluated by this assay.

FSHR = molecular target: T4, FSHR (Homo sapiens, UniProt P23945); test: Selectivity test: cAMP RIA in HEK-293 cells stably expressing FSHR; details: 50 μM together with the respective agonist
T4 construct: expressed in transfected cells
T4 sequence (P23945 18-695): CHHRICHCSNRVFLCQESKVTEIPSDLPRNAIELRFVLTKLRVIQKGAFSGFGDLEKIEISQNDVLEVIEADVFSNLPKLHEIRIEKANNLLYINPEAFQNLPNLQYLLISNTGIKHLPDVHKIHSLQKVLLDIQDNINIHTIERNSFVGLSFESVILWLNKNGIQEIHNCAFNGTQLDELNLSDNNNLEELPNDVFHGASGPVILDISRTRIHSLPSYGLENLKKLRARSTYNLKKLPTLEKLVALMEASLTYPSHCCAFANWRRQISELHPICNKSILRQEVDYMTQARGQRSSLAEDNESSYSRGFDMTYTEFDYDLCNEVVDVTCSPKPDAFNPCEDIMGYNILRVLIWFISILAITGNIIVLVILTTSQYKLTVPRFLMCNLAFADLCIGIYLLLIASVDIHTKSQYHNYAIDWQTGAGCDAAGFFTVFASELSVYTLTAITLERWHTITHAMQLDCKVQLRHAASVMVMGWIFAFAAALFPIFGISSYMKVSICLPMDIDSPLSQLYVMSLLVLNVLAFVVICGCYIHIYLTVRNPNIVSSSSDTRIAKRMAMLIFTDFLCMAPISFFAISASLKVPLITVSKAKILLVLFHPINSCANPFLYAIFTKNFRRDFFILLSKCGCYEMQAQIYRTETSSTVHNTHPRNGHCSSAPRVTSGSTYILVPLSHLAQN
Protocol: as §1
(§2) The antagonistic activity of compounds S4, S9, S37 and as reference compound, the micromolar inverse agonist 2-7 (Neumann et al. 2010) were tested on homologous members of the glycoprotein hormone receptor family, FSHR and LHCGR. […] All receptors were stably expressed in HEK-293 cells and the impact of each substance was measured upon administration of 50 μM together with the respective agonist. cAMP accumulation was quantified by RIA. The antagonistic potential of each compound was calculated. […]

TSHR [3] = molecular target: T1, TSHR; test: Primary screening, Enzyme Fragment Complementation (EFC) cAMP assay in CHO-K1-TSHR cells; details: 50 μM; after hit validation and exclusion of false positives
Protocol: Primary screening was performed using an Enzyme Fragment Complementation (EFC) technology. CHO-K1-TSHR cells (15000/well in a 384 well plate) were treated with 50 μM of each of the 16544 compounds of the ChemBioNet compound library of the Leibniz-Institut fuer Molekulare Pharmakologie (FMP), Berlin, Germany. EFC technology uses two fragments of one enzyme: an enzyme acceptor (EA) and an enzyme donor (ED). ED is labeled to (synthetic) cAMP. […] In this assay, free cAMP from cell lysates and ED-labeled cAMP compete for antibody binding sites. Unbound ED-cAMP is free to complement EA to form active enzyme, which subsequently produces a luminescent signal. Thus the luminescence signal increases with rising level of intracellular cAMP. All assay components were used after the manufacturer's protocol.
Hits were validated by dose-response curves using the EFC assay.
False-positive hits could be excluded by stimulating CHO-K1 cells without TSHR with Forskolin (23.4 μM) followed by addition of the compound of interest. Forskolin activates the Adenylyl-cyclase directly. Inhibition of this effect excludes the interaction between TSHR and compound.
For the implementation of the primary screen the Enzymes Fragment Complementation Technology (EFC) was selected.

LHCGR = molecular target: T5, LHCGR (Homo sapiens, UniProt P22888); test: Selectivity test: cAMP RIA in HEK-293 cells stably expressing LHCGR; details: 50 μM together with the respective agonist
T5 construct: expressed in transfected cells
Protocol: as §1, §2

T1 sequence (P16473 21-764): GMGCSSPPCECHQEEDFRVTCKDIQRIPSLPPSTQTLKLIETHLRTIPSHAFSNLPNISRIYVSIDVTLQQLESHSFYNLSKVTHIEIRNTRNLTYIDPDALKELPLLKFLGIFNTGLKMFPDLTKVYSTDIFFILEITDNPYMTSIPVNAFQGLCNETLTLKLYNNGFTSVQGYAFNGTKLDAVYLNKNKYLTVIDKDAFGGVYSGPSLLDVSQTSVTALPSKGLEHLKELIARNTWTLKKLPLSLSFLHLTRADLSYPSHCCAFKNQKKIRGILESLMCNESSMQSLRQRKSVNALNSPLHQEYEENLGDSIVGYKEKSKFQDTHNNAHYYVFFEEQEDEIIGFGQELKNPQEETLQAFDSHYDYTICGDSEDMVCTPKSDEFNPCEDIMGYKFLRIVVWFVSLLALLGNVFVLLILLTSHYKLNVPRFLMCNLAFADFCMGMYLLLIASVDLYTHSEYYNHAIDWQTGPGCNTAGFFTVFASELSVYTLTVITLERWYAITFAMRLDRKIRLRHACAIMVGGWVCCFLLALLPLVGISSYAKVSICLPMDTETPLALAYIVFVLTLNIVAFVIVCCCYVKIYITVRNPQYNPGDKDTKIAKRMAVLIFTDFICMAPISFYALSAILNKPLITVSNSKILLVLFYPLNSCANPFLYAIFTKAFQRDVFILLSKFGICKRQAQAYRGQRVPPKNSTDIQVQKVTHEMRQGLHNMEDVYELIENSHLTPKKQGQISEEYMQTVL
T2 sequence (P16473 21-764): as above
T5 sequence (P22888 27-699, species assumed): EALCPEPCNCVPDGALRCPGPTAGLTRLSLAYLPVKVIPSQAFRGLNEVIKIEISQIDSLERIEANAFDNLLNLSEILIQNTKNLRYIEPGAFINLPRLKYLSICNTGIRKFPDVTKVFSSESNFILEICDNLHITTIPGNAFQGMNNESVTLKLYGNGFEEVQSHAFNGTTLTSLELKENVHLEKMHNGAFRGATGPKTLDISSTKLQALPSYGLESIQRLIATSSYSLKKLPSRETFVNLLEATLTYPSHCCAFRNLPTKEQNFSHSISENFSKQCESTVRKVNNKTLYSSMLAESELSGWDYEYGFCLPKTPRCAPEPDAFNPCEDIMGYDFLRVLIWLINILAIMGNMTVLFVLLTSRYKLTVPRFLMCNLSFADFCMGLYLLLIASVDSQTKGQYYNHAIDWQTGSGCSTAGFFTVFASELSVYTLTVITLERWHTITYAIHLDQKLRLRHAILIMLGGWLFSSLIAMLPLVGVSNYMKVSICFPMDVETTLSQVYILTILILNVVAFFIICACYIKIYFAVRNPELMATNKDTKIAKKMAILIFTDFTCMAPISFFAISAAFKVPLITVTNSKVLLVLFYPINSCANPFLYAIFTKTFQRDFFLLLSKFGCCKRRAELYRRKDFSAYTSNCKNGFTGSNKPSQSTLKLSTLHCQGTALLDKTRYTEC
T3 sequence (P16473 409-764, stated change not applied): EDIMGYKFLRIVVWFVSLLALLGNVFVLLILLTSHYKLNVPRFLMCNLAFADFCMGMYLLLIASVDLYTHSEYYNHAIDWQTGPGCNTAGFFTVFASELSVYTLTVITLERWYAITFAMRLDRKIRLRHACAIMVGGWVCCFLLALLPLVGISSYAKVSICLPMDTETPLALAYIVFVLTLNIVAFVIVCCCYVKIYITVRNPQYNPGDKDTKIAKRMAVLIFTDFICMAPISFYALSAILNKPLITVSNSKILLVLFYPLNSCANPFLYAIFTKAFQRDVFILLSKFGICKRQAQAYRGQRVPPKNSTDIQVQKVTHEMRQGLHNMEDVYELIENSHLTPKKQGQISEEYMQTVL

Row | Compound | Antagonistic effect (cAMP inhibition) on TSHR (TSHR [1]) | Mode of antagonism vs. TSH (Schild analysis) (TSHR [1]) | TSHR selectivity versus homologous receptors LHCGR and FSHR (TSHR [1]; from cAMP inhibition at TSHR, FSHR, LHCGR at 50 μM) | antagonistic activity (% inhibition) (TSHR [1]) [%] | IC50 (TSHR [1]) | Mode of antagonism vs. C2 (wt TSHR) | Mode of antagonism vs. C2 at truncated construct (Δ1-408-TSHR) | Toxicity (cell vitality, alamar blue) [2] | Antagonistic effect (cAMP inhibition) on FSHR (FSHR) | Primary screen hit: cAMP production induced by thyrotropin (TSHR [3]) | Antagonistic effect (cAMP inhibition) on LHCGR (LHCGR)
1 | O=C1[C@@H]2[C@H]3C[C@H]([C@@H]4Sc5[nH]c(=O)sc5[C@@H](c5ccccc5)[C@H]34)[C@@H]2C(=O)N1c1ccccc1 (racemic) [Compound S37, (4aS,5S,5aR,8aR,9R,9aS,10R)-7,10-diphenyl-3,4a,5,5a,8a,9,9a,10-octahydro-5,9-methanothiazolo[5′,4′:5,6]thiopyrano[2,3-f]isoindole-2,6,8(7H)-trione] | inhibits TSHR comparable to the reference compound 2-7(NIH) | competitive antagonism | highly TSHR-selective | 70 | 28 µM | non-competitive antagonism | non-competitive antagonism | not toxic | – | – | –
2 | Cc1ccc(N2C(=O)C3C4CC(C3C2=O)C2C(c3ccccc3)c3sc(=O)[nH]c3SC42)cc1 (stereo not drawn) [Compound S4] | inhibits TSHR and FSHR activation | – | – | 63 | 48.9 µM and 49 µM | – | – | – | inhibits TSHR and FSHR activation | potentially abolishing cAMP production | –
3 | O=C1C2C3C=CC(C3)C2C(=O)N1c1ccc(N2CCN(c3cccc(C(F)(F)F)c3)CC2)c([N+](=O)[O-])c1 (stereo not drawn) [Compound S9] | unspecifically inhibits all three receptors | non-competitive antagonism | – | 75 | 18.7 µM and 18.6 µM | non-competitive antagonism | – | – | unspecifically inhibits all three receptors | potentially abolishing cAMP production | unspecifically inhibits all three receptors
